According to US10086074B2, “Compositions and method for light triggered release of materials from nanovesicles” (The Research Foundation for The State University of New York, priority 2012, dated 2018):

Test system: Panc-1 xenografts
Assay: Liposomal release from tumors following intratumoral administration
Type: in vivo, nude mice
Details: 2 hours following injection, 5 nmol
Experimental: FIG. 13. Example of spatial and temporal control of PoP-liposome permeabilization a) Spatial control of B. subtilis killing with triggered antibiotic release. Gentamicin was loaded in PoP-liposomes and embedded in hot agar along with the bacteria. The indicated spot was irradiated with a 658 nm laser (200 mW/cm^2) for 10 minutes and the plates were photographed 24 hours later. b) Temporal control of cargo release in Panc-1 xenografts. Mice were imaged following intratumoral injection of 5 nmol of either free sulforhodamine B or sulforhodamine B entrapped at self-quenching concentrations in PoP-liposomes. Representative images are shown of the indicated time points and conditions. Laser activation was performed after 2 hours. Representative results shown with n=3 mice per treatment group.
Liposomal release from tumors following intratumoral administration: Panc-1 tumors were grown by injecting 20 g female nude mice (Charles River) with 3×10^6 Panc-1 cells in a 1:1 matrigel dilution (BD Biosciences) in the hind flank of the mice. Following several weeks of growth, the tumors were carefully injected intratumorally with sulforhodamine B-PoP-liposomes. Images were acquired with an in vivo fluorescence imager (IVIS Lumina II) at the indicated time points with the mice under isoflurane-induced anesthesia. […]

CCN(CC)c1ccc2c(-c3ccc(S(=O)(=O)O)cc3S(=O)(=O)[O-])c3ccc(=[N+](CC)CC)cc-3oc2c1 [free rhodamine, sulforhodamine B] was tested, and the “fluorescence in tumor after intratumoral injection” value was “little fluorescence remaining in the tumor”.
